Test results: patent publication US5840721A, “Imidazole derivatives as MDR modulators” (Ontogen Corporation, priority 1997, dated 1998)
pEC50: −log10 of the molar value.

How the values were obtained:
CEM/VLB1000 cell line [1] = experiment: Cytotoxicity potentiation: enhancement of vinblastine cytotoxicity in MDR cell line (alamar blue); type: cell-based, human; settings: Homo sapiens, midpoint of minimum and maximum cytotoxicity induced by 3-5 μg/mL vinblastine and compound, 48 hours incubation, alamar blue 24 hours, read-out: Cytotocicity Potentiation (EC50)
Experimental: Multidrug-resistant cell lines are easily obtainable for in vitro determination of drug sensitization by compounds of the present invention. In vitro potentiation of antineoplastic cytotoxicity by the imidazole derivatives of the present invention was measured in both CEM/VLB1000 and SK/VLB1000 cell lines. The multidrug resistant cell lines were obtained from Dr. Victor Ling, Ontario Cancer Institute, Toronto, Canada. The CEM/VLB 1000 cell line was maintained as a suspension in minimum essential medium supplemented with 10% fetal bovine serum in a humidied atmosphere of 95% air and 5% CO2 while the SK/VLB 1000 cell line was maintained as adherent cells using the identical medium conditions as the CEM cells. The CEM/VLB 1000 cells were seeded at a density of 5×10^4 cells/well in a 96 well microtiter plate while the SK/VLB 1000 cell line was seeded at a density of 2,500 cells/well after trypsinization.

CEM/VLB1000 cell line [2] = experiment: [3H]VLB accumulation in CEM/VLB1000 cells; type: cell-based; settings: Homo sapiens, midpoint of minimum and maximum increase in accumulation of 3H-vinblastine (275 nM), 3 hours at 37° C
Experimental: ^3 H-vinblastine accumulation was also measured in the CEM/VLB1000 cell line. Corning Easy-Wash 96 well plates were pretreated with PBS and 1% BSA for 60 minutes and then removed. CEM/VLB1000 cells were seeded at 2×10^5, 40 μL volume. Plates were incubated at 37° C. for 30-60 minutes prior to use. The reference reversing agent, verapamil, or the compound of the present invention was added to the well followed by addition of media containing ^3 H-vinblastine (final concentration=275nM). Plates were allowed to incubate for 3 hours at 37° C. Cells were harvested onto pretreated Wallace filtermats A (pretreated with 0.1% polyethyleneimine) using a TomTek harvester-96. After filtering, the filtermats were allowed to dry completely. Meltix B scintillant was then added to the filtermats. The filters were then placed in a 90° C. oven for approximately 3-5 minutes and then removed. Scintillant was allowed to solidify on the filtermats. Filtermats were then placed in sample bags and read on a Wallace BetaPlate scintillation counter. The effects of compounds of the present invention in the cytotoxicity potentiation assays and vinblastine (VLB) accumulation assay are given in the Table below:
^2 Values presented are the midpoint (EC50 ) of the minimum and
maximum increase in accumulation of ^3 Hvinblastine caused by the
specfic compound of the present invention.

| SMILES | pEC50 (CEM/VLB1000 cell line [1]) | pEC50 (CEM/VLB1000 cell line [2]) |
| --- | --- | --- |
| CN(C)c1ccc(-c2nc(-c3ccc(/C=C/COCc4ccccc4)cc3)[nH]c2-c2ccc(N(C)C)cc2)cc1 [Example 77, 2-[4-(3-benzyloxy-trans-1-propen-1-yl)phenyl]-4,5-bis (4-N,N-dimethylaminophenyl) imidazole] | 6.47 | 5.92 |
| CCOC/C=C/c1ccc(-c2nc(-c3ccc(N(C)C)cc3)c(-c3ccc(N(C)C)cc3)[nH]2)cc1 [Example 75, 2-[4-(3-ethoxy-trans-1-propen-1-yl)phenyl]-4,5-bis (4-N,N-dimethylaminophenyl) imidazole] | 7.01 | 5.92 |
| COC/C=C/c1ccc(-c2nc(-c3ccc(N(C)C)cc3)c(-c3ccc(N(C)C)cc3)[nH]2)cc1 [Example 74, 2-[4-(3-methoxy-trans-1-propen-1-yl)phenyl]-4,5-bis (4-N,N-dimnethylaminophenyl) imidazole] | 6.89 | 5.70 |
